Laboratory results published in patent US20110003711A1 (CHROMOCELL CORPORATION, priority 2008, published 2011).
Counter-ions that a name gives are not always drawn. Like-named read-outs stand apart in the source and are kept apart here.

Tests used:
[1] = biological target: T1, GABAA receptor α1β3γ2s (α1) (Homo sapiens, UniProt P14867+P18507+P28472); assay: Membrane potential assay, CHO cell line expressing GABAA α1β3γ2s; format: cell-based
T1 construct: Human GABAA receptor alpha 1 subunit amino acid; Human GABAA receptor beta 3 variant 1 subunit amino acid; Human GABAA receptor gamma 2 variant 1 (short) subunit amino acid; expressed in transfected cells
T1 sequence (P14867 28-456): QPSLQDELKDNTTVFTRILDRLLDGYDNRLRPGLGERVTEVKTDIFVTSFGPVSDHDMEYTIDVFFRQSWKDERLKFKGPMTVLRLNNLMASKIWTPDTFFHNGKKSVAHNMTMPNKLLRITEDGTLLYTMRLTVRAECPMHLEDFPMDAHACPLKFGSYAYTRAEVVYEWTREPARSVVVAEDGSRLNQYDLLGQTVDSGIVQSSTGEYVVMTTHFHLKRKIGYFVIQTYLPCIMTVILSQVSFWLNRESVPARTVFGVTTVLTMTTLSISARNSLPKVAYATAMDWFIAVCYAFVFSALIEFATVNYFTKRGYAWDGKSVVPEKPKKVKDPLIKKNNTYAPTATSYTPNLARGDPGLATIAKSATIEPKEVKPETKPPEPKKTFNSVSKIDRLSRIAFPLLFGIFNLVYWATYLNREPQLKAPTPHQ
T1 sequence (P28472 26-473): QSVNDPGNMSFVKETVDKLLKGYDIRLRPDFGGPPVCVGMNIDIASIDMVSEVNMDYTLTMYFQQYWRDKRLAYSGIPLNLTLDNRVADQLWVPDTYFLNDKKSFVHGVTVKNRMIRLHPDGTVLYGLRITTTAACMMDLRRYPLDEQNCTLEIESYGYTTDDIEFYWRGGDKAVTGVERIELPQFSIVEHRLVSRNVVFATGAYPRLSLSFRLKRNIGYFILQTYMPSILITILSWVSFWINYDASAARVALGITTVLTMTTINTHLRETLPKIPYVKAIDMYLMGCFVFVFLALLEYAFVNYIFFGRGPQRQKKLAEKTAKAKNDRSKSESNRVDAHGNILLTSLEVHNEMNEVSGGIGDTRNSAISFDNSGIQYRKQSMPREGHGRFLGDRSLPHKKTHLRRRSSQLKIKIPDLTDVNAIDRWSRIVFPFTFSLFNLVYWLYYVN
T1 sequence (P18507 40-467 isoform P18507-1 limits assumed): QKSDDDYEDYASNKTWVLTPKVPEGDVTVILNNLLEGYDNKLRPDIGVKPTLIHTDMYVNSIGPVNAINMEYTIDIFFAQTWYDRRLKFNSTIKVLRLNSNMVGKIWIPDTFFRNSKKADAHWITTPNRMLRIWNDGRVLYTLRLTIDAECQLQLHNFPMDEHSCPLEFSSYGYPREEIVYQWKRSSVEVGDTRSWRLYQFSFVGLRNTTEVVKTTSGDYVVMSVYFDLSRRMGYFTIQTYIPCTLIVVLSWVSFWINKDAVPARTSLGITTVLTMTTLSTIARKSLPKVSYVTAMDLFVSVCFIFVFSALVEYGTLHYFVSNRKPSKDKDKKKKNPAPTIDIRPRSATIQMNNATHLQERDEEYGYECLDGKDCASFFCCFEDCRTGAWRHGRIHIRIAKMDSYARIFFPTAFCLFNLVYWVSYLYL
Protocol: (§1) As will be appreciated by those of skill in the art, any reagent that is suitable for use with a chosen host cell may be used to introduce a nucleic acid, e.g. plasmid, oligonucleotide, labeled oligonucleotide, into a host cell with proper optimization. Examples of reagents that may be used to introduce nucleic acids into host cells include but are not limited to Lipofectamine, Lipofectamine 2000, Oligofectamine, TFX reagents, Fugene 6, DOTAP/DOPE, Metafectine, or Fecturin.
(§2) Cells were plated 24 hours prior to assay at 10-25,000 cells per well in 384 well plates in growth media (Ham's F-12 media plus FBS and glutamine). […] Incubation was for 1 hour, followed by plate loading onto the high throughput fluorescent plate reader (Hamamastu FDSS). […] The plates were read for 90 seconds.
(§3) Interaction of cell lines with test compounds was evaluated by measuring the membrane potential of GABAA, in response to test compounds using the following protocol.

[2] = biological target: T2, GABAA receptor α2β3γ2s (α2) (Homo sapiens, UniProt P18507+P28472+P47869, A343T); assay: Membrane potential assay, CHO cell line expressing GABAA α2β3γ2s; format: cell-based; details: membrane potential assay, CHO α2β3γ2s cell line
T2 construct: Human GABAA receptor alpha 2 subunit amino acid; Human GABAA receptor beta 3 variant 1 subunit amino acid; Human GABAA receptor gamma 2 variant 1 (short) subunit amino acid; expressed in transfected cells
T2 sequence (P47869 29-451 A343T): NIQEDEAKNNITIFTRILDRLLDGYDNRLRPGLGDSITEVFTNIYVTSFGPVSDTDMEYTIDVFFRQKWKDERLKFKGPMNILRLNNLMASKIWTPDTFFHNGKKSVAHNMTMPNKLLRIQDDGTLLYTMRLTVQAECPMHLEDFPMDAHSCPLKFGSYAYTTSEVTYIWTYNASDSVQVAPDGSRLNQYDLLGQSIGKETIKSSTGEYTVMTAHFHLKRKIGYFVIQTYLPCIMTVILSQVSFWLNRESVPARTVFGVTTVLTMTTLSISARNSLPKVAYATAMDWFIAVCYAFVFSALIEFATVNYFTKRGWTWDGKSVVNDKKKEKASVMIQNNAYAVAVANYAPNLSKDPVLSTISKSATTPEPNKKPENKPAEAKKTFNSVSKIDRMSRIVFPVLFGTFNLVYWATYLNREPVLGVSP
T2 sequence (P28472 26-473, stated change not applied): as the sequence (P28472 26-473) above
T2 sequence (P18507 40-467 isoform P18507-1, stated change not applied): as the sequence (P18507 40-467 isoform P18507-1 limits assumed) above
Protocol: as §1, §2, §3

[3] = biological target: T3, GABAA receptor α3β3γ2s (α3) (Homo sapiens, UniProt P18507+P28472+P34903); assay: Membrane potential assay, CHO cell line expressing GABAA α3β3γ2s; format: cell-based
T3 construct: Human GABAA receptor alpha 3 subunit amino acid; Human GABAA receptor beta 3 variant 1 subunit amino acid; Human GABAA receptor gamma 2 variant 1 (short) subunit amino acid; expressed in transfected cells
T3 sequence (P34903 29-492): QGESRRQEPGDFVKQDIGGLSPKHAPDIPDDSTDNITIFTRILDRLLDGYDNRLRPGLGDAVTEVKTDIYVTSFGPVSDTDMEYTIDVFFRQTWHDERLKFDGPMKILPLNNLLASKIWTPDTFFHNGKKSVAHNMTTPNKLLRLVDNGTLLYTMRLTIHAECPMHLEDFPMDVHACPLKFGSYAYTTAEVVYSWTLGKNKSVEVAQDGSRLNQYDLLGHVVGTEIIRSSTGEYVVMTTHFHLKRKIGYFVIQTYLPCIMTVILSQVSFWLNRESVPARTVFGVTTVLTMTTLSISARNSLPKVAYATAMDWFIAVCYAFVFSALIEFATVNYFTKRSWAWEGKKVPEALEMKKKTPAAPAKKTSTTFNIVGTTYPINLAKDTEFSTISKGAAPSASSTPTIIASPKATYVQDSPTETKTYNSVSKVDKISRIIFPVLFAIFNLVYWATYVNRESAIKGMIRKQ
T3 sequence (P28472 26-473): as the sequence (P28472 26-473) above
T3 sequence (P18507 40-467 isoform P18507-1 limits assumed): as the sequence (P18507 40-467 isoform P18507-1 limits assumed) above
Protocol: as §1, §2, §3

[4] = biological target: T4, GABAA receptor α5β3γ2s (α5) (Homo sapiens, UniProt P18507+P28472+P31644); assay: Membrane potential assay, CHO cell line expressing GABAA α5β3γ2s; format: cell-based
T4 construct: Human GABAA receptor alpha 5 subunit amino acid; Human GABAA receptor beta 3 variant 1 subunit amino acid; Human GABAA receptor gamma 2 variant 1 (short) subunit amino acid; expressed in transfected cells
T4 sequence (P31644 32-462): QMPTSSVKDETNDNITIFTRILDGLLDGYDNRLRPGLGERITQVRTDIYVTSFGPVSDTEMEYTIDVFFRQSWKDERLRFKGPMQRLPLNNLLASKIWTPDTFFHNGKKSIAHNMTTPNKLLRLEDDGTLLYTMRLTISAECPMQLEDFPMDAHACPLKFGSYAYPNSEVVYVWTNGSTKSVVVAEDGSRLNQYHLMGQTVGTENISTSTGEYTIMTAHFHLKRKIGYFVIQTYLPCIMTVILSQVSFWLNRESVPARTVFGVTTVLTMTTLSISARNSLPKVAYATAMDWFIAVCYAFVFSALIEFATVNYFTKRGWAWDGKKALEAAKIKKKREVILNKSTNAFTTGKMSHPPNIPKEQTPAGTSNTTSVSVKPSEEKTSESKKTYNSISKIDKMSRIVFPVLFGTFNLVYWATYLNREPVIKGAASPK
T4 sequence (P28472 26-473): as the sequence (P28472 26-473) above
T4 sequence (P18507 40-467 isoform P18507-1 limits assumed): as the sequence (P18507 40-467 isoform P18507-1 limits assumed) above
Protocol: as §1, §2, §3

[5] = biological target: T5, GABAA receptor α2β3γ2s (α2) (Homo sapiens, UniProt P18507+P28472+P47869); assay: Membrane potential assay, CHO cell line expressing GABAA α2β3γ2s; format: cell-based
T5 construct: Human GABAA receptor alpha 2 subunit amino acid; Human GABAA receptor beta 3 variant 1 subunit amino acid; Human GABAA receptor gamma 2 variant 1 (short) subunit amino acid; expressed in transfected cells
T5 sequence (P47869 29-451 A343T): as the sequence (P47869 29-451 A343T) above
T5 sequence (P28472 26-473, change not shown): as the sequence (P28472 26-473) above
T5 sequence (P18507 40-467 isoform P18507-1, change not shown): as the sequence (P18507 40-467 isoform P18507-1 limits assumed) above
Protocol: as §1, §2, §3

[6] = tested on: GABAA-meYFP-CHO cells (α1β3γ2s, α2β3γ2s, α3β3γ2s, α5β3γ2s); assay: In-cell readout assay using halide-sensitive meYFP; format: cell-based, human; details: increasing concentrations of GABA ligand
Protocol: The response of GABAA (subunit combinations of α1β3γ2s (A1), α2β3γ2s (A2), α3β3γ2s (A3) and α5β3γ2s (A5)) expressing CHO cells of the invention to test compounds was evaluated using the following protocol for an in-cell readout assay.
Cells were plated 24 hours prior to assay at 10-25,000 cells per well in 384 well plates in growth media (Ham's F-12 media plus FBS and glutamine). […] The assay plates were then loaded on the FDSS (Hamamatsu Corporation). […] The plates were read for 90 seconds.

[7] = membrane potential assay, CHO α1β3γ2s cell line, read-out: EC50 Values α1
[8] = membrane potential assay, CHO α3β3γ2s cell line, read-out: EC50 Values α3
[9] = membrane potential assay, CHO α5β3γ2s cell line, read-out: EC50 Values α5

Compound | EC50 [1, 7] [nM] | EC50 [2] [nM] | EC50 [3, 8] [nM] | EC50 [4, 9] [nM] | EC50 [5] [nM] | EC50 [4] [nM] | EC50 [1] [nM] | EC50 [3] [nM] | Quench of meYFP signal [6] | EC50 Values α5 (result in words) ([4]; membrane potential assay, CHO α5β3γ2s cell line)
C[C@]12CC[C@@H](O)C[C@@H]1CC[C@@H]1[C@@H]2CC[C@]2(C)[C@@H](C(=O)CO)CC[C@@H]12 [3-alpha, 21-dihydroxy-5-alpha-pregnan-20-one] | 382 | 123 | 80.2 | 17.3 | – | – | – | – | – | –
CC(=O)[C@H]1CC[C@H]2[C@@H]3CC[C@H]4C[C@H](O)CC[C@]4(C)[C@H]3CC[C@]12C [5-alpha-Pregnan-3alpha-ol-20-one] | 692 | – | 80 | – | 140 | 33.6 | – | – | – | –
C[C@]12CC[C@@H](O)C[C@@H]1CC[C@@H]1[C@@H]2CC[C@]2(C)C(=O)CC[C@@H]12 [Androsterone] | – | – | – | – | 1520 | 337 | 1480 | 1120 | – | –
CN1C(=O)CCS(=O)(=O)C1c1ccc(Cl)cc1 (stereo not shown) [Chlormezanone] | – | – | – | – | 5.42 | 14.1 | 1.74 | 7 | – | –
OCCN(CCO)c1nc(N2CCCCC2)c2nc(N(CCO)CCO)nc(N3CCCCC3)c2n1 [Dipyridamole] | – | 3680 | 3690 | 1370 | – | – | – | – | – | –
CCOC(=O)c1cnc2c(cnn2CC)c1NN=C(C)C [Etazolate] | 2540 | 790 | 569 | 281 | – | – | – | – | – | –
NCCCC(=O)O [GABA, Gamma-aminobutyric acid] | – | – | – | – | – | – | – | – | increasing quench of meYFP signal | –
COc1cc(/C=C(\C#N)C(=O)c2ccc(O)c(O)c2)cc(I)c1O [I-OMe Tyrphostin 538] | 3500 | 1500 | 2200 | – | – | – | – | – | – | α5 Not active
O=C(O)C1=CCNCC1 [Isoguvacine hydrochloride] | 3570 | 3420 | 6780 | 1130 | – | – | – | – | – | –
NCc1cc(=O)[nH]o1 [Muscimol] | – | – | – | – | 675 | 80 | 4000 | 367 | – | –
O=C(Nc1ccc([N+](=O)[O-])cc1Cl)c1cc(Cl)ccc1O [Niclosamide] | – | – | 550 | 690 | – | – | – | – | – | –
O=S(=O)(O)C1CCNCC1 [Piperidine-4-sulphonic acid] | 13000 | 20000 | 8330 | 14200 | – | – | – | – | – | –
CC(C)c1cccc(C(C)C)c1O [Propofol] | – | – | – | – | 42800 | 2000 | 33400 | 12900 | – | –
CCCCNc1c(C(=O)OCC)c(C)nc2c1cnn2CC [Tracazolate] | 10600 | 8900 | 4300 | 762 | – | – | – | – | – | –
CC(C)(C)c1cc(C=C(C#N)C#N)cc(C(C)(C)C)c1O [Tyrphostin A9] | 1800 | 880 | 5000 | 54000 | – | – | – | – | – | –
Ivermectin | 4260 | 767 | 798 | 687 | – | – | – | – | – | –
